Laboratory results: patent publication US12503687B2, “Therapeutic bacteriophage compositions” (priority 2017, dated 2025)
Several values for one entry are separate records, joined by “and”; a condition that tells them apart may be missing. Equal entries are not always repeated.

System: Staphylococcus aureus strain UNT144-3
Assay: S. aureus pneumonia model (neutropenic murine lung infection)
Assay type: in vivo, mice
Conditions: 100 mg/kg SC at 2 and 6 hrs post-infection; CFU assessed 24 hr
Procedure: The sensitivity of two S. aureus clinical isolates, UNT109-3 (NRS234, native valve endocarditis) and UNT144-3, that have been previously utilized in animal models of infection, was evaluated vs. the individual phage and the 4-phage panel. […] The virulence of the two strains was then evaluated in the murine lung infection model. Female Hsd:ICR(CD-1) mice (Harlan Laboratories, Houston, TX) were administered 150 and 100 mg/kg cyclophosphamide on day −4 and day −1 prior to infection to render them neutropenic. Groups of 5 mice were then anaesthetized by intraperitoneal (IP) injection of 0.15 mL of a mixture of ketamine HCl (100 mg/kg body weight) plus xylazine (10 mg/kg body weight). Once anaesthetized, mice were infected intranasally by placing drops on the external nares and allowing inhalation of the 50 μl inoculum. Twenty-four hours after infection, mice were euthanized by CO2 inhalation and lungs processed for bacterial titers. Bacterial counts were enumerated on Brain Heart Infusion agar (Difco™ Laboratories)+0.5% activated charcoal (Sigma-Aldrich) plates for ease of recovering and detecting S. aureus (Barr, J. G., et al., J. Clin. Pathol. (1987) 40:372-376). […]
Three phage panel treatment groups were evaluated for efficacy: 2×10^10 PFU/mL per phage, 2×10^9 PFU/mL per phage, and 2×10^8 PFU/mL per phage. […]

Compound: CN[C@H](CC(C)C)C(=O)N[C@H]1C(=O)N[C@@H](CC(N)=O)C(=O)N[C@H]2C(=O)N[C@H]3C(=O)N[C@H](C(=O)N[C@H](C(=O)O)c4cc(O)cc(O)c4-c4cc3ccc4O)[C@H](O)c3ccc(c(Cl)c3)Oc3cc2cc(c3O[C@@H]2O[C@H](CO)[C@@H](O)[C@H](O)[C@H]2O[C@H]2C[C@](C)(N)[C@H](O)[C@H](C)O2)Oc2ccc(cc2Cl)[C@H]1O [Vancomycin]
- Mean ± SD log10 CFU/Lung Pair: 5.55 log10 CFU/Lung Pair and 5.55 ± 1.1 log10 CFU/Lung Pair
